# Like-named read-outs stand apart in the source and are kept apart here.
# What was measured:
# γ3 GABAA receptors = conditions: 1999, cited from earlier work
# [1] = target: T1, human α1β2γ2 GABAA receptors (Homo sapiens, UniProt P14867+P18507+P47870); assay: cell-based; conditions: for Emax: γ2 (α1β2γ2), percent of current through GABA EC10, Hill fit
# Source text: (§1) To ensure homogenous receptor populations and subunit orientation, we used concatenated receptors expressed in X. laevis oocytes. Concatenated pentameric constructs were created using the subunits γx-β2-α1-β2-α1 (where x = 1, 2, or 3). […] Briefly, natural restriction sites BamHI, HindIII, and KpnI restriction sites in the γ1, 2, 3, β2, or α1 subunits were removed through silent mutations using site-directed mutagenesis. […] Inserted linker lengths are as follows γx-13a-β2-27a-α1-18a-β2-27a-α1.
# (§2) The collection and preparation of oocytes were done as previously described ([Ahring et al., 2016]). […] Oocytes were prepared by slicing lobes into small pieces and defolliculated through collagenase A treatment. Stage V and VI oocytes were injected with around 50 nL of 0.5 ng/nL RNA for each concatenated construct or α1/β2 subunits in a 1:1 ratio and incubated for 3–4 days at 18°C in modified Barth’s solution (96 mM NaCl, 2.0 mM KCl, 1 mM MgCl2, 1.8 mM CaCl2, 5 mM HEPES, 2.5 mM sodium pyruvate, 0.5 mM theophylline, and 100 μg/mL gentamicin; pH 7.4).
# (§3) This technique was performed as previously described ([Ahring et al., 2016], [2018]; [Liao et al., 2019]). Briefly, oocytes sit in a custom-built chamber and continuously perfused with a saline solution, ‘ND96’ (96 mM NaCl, 2 mM KCl, 1 mM MgCl2, 1.8 mM CaCl2, and 10 mM HEPES; pH 7.4). Glass electrode pipettes were filled with 3 M KCl, with resistances ranging from 0.4 to 2 MΩ. Oocytes were clamped to −60 mV using an Axon GeneClamp 500B amplifier (Molecular Devices). Currents were filtered at 20 Hz with a four-pole low pass Bessel filter (Axon GeneClamp 500 B) and digitized by a Digidata 1440A (Molecular Devices). Sampling was taken at 200 Hz and analyzed using pClamp 10.2 suite (Molecular Devices).
# (§4) Each recording day, a fresh stock was used to prepare dilutions. The maximal concentration of DMSO in final drug ND96 solutions was <0.1%.
# (§5) The drug modulation experiments were done as follows.
# (§6) The final dataset was from a minimum of four experiments and a minimum of two different X. laevis donors. Raw traces were analyzed using pClamp 10.2. Episodic traces for each application were overlaid and the baseline was subtracted. Peak current amplitude was quantified by measuring maximum inward current for each response. Peak current amplitudes (I) were fitted to the Hill equation and normalized to the maximal fitted response (Imax). […] The Emax response and EC50 values were calculated by using non-linear regression to fit the data to the Hill equation in a monophasic model with three variables (top, bottom, EC50) using GraphPad Prism 8. Efficacy at infinitely low compound concentration was set to 0, and the slope was constrained to 1. Means are reported ± one SD.
# [2] = target: T2, human α1β2γ1 GABAA receptors (Homo sapiens, UniProt P14867+P47870+Q8N1C3); conditions: γ1 (α1β2γ1); for Modulation at 10 μM: 10 μM co-applied with GABA EC10, percentage potentiation of GABA EC10; for Emax (%): percent of current through GABA EC10, Hill fit, 0.1 nM-10 μM
# T2 sequence (Q8N1C3 36-465): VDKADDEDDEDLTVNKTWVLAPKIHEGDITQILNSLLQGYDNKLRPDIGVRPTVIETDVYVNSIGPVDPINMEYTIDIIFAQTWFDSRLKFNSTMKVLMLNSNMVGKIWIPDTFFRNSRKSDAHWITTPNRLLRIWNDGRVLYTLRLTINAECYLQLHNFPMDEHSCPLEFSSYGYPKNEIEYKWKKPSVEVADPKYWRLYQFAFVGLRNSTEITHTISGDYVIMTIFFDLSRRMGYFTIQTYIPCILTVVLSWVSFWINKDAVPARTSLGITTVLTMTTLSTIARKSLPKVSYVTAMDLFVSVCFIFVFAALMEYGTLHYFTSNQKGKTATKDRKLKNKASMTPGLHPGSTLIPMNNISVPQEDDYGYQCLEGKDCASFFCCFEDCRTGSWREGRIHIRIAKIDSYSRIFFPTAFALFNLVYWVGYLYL
# T2 sequence (P47870 25-512 limits assumed): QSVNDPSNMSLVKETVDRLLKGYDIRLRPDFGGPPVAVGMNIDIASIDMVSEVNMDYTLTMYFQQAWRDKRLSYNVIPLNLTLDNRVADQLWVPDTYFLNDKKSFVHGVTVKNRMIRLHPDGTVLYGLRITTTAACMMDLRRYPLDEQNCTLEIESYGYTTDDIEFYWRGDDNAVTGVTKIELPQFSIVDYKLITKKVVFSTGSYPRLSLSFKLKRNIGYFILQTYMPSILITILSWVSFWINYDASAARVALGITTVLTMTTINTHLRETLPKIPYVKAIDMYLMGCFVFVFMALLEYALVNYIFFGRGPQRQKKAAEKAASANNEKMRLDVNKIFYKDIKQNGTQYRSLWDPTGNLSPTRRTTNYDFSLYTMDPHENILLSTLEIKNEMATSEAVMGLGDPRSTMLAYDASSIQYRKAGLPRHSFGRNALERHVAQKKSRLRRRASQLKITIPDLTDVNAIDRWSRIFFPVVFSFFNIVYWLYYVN
# T2 sequence (P14867 28-456): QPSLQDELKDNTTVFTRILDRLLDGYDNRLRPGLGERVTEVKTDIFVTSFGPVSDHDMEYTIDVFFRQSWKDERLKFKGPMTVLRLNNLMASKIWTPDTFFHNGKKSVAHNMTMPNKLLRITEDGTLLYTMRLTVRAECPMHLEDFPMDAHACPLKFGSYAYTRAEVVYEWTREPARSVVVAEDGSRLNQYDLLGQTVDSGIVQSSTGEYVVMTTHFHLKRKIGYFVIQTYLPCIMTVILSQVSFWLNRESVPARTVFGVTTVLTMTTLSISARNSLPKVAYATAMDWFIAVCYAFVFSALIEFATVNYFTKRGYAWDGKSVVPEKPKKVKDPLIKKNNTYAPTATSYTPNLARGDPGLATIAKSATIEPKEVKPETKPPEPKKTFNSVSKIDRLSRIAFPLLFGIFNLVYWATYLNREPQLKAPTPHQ
# Source text: as §1, §2, §3, §4, §5, §6
# α2β2γ3 receptor [3] = assay: Literature: efficacy and potency of zaleplon at α2β2γ3 receptor; format: cell-based; conditions: literature α2β2γ3 EC50 vs this paper's α1β2γ3 EC50
# α2β2γ3 receptor [4] = conditions: earlier study, no reference given; cited from earlier work
# [5] = target: T1, human α1β2γ2 GABAA receptors; conditions: γ2 (α1β2γ2); for Modulation at 10 μM: 10 μM co-applied with GABA EC10, percentage potentiation of GABA EC10
# Source text: as §1, §2, §3, §4, §5, §6
# [6] = target: T3, human α1β2γ3 GABAA receptors (Homo sapiens, UniProt P14867+P47870+Q99928); conditions: for fold greater potency at γ3 receptors compared with γ2: EC50 α1β2γ2 vs α1β2γ3; for Modulation at 10 μM: 10 μM co-applied with GABA EC10, percentage potentiation of GABA EC10
# T3 sequence (Q99928 18-467): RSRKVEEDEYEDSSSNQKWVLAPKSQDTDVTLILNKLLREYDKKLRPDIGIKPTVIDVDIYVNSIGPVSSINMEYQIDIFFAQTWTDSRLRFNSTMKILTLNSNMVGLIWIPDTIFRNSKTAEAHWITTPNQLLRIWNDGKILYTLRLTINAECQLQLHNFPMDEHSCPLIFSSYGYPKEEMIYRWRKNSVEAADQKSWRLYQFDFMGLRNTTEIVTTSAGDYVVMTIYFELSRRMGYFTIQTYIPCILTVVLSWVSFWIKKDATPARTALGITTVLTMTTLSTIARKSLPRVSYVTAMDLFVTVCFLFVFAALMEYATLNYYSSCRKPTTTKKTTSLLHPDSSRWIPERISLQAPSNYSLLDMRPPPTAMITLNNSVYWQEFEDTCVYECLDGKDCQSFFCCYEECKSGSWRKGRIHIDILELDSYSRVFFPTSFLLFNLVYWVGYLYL
# T3 sequence (P47870 25-512 limits assumed): T2 sequence (P47870 25-512 limits assumed)
# T3 sequence (P14867 28-456): T2 sequence (P14867 28-456)
# Source text: as §1, §2, §3, §4, §5, §6
# [7] = target: T3, human α1β2γ3 GABAA receptors; assay: cell-based
# Source text: as §1, §2, §3, §4, §5, §6
# [8] = target: T4, human binary α1β2 GABAA receptors (Homo sapiens, UniProt P14867+P47870); conditions: 10 μM co-applied with GABA EC10, percentage potentiation of GABA EC10
# T4 sequence (P14867 28-456): T2 sequence (P14867 28-456)
# T4 sequence (P47870 25-512 limits assumed): T2 sequence (P47870 25-512 limits assumed)
# Procedure: as §2
# This technique was performed as previously described ([Ahring et al., 2016], [2018]; [Liao et al., 2019]). Briefly, oocytes sit in a custom-built chamber and continuously perfused with a saline solution, ‘ND96’ (96 mM NaCl, 2 mM KCl, 1 mM MgCl2, 1.8 mM CaCl2, and 10 mM HEPES; pH 7.4). […] Sampling was taken at 200 Hz and analyzed using pClamp 10.2 suite (Molecular Devices). […]
# The final dataset was from a minimum of four experiments and a minimum of two different X. laevis donors. Raw traces were analyzed using pClamp 10.2. […] Peak current amplitude was quantified by measuring maximum inward current for each response. […] The Emax response and EC50 values were calculated by using non-linear regression to fit the data to the Hill equation in a monophasic model with three variables (top, bottom, EC50) using GraphPad Prism 8. […]
# α2βγ1 receptors = system: α2βγ1 receptors; design: method as in Wafford et al., 1993; Mckernan et al., 1995; conditions: α2βγ1 in X. laevis oocytes, ref Wafford et al., 1993, Mckernan et al., 1995, cited from earlier work
# γ1-containing receptors = system: γ1-containing receptors; design: method as in Benke et al., 1996; conditions: ref Benke et al., 1996; cited from earlier work
# α1βγ1 receptors [9] = system: α1βγ1 receptors; design: method as in Khom et al., 2006; conditions: α1βγ1 in X. laevis oocytes, ref Khom et al., 2006, cited from earlier work
# α1βγ1 receptors [10] = conditions: HEK293 cells expressing α1βγ1, cited from earlier work
# T1 sequence (P18507 40-475, one chain of several): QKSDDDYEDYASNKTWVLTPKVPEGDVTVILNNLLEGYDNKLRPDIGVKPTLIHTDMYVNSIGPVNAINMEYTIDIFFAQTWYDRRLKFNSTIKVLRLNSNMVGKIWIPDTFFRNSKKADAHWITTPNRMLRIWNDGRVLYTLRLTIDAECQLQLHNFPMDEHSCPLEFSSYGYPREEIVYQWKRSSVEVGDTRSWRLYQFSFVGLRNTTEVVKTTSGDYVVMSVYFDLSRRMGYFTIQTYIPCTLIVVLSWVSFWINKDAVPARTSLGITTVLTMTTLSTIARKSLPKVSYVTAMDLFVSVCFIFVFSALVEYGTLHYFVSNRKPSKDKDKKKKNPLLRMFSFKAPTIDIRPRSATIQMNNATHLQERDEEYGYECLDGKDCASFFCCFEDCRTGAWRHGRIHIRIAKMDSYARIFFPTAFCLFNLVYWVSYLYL
compound,measurement,setting,value
"CCN(C(C)=O)c1cccc(-c2ccnc3c(C#N)cnn23)c1 [Zaleplon, zaleplon]",binding affinity with γ3 compared with γ2,"γ3 GABAA receptors; competitive binding using Ro15-4513, ref Dämgen and Lüddens",eightfold higher affinity
same,EC50,"[1]; EC50, γ2 (α1β2γ2), co-applied with GABA EC10",203 nM
same,Emax,[1],307 ± 34%
same,Modulation at 10 μM,[2],126 ± 3%
same,Modulation at 10 μM,[2]; listed as zaleplon,125%
same,EC50,[2]; co-applied with GABA EC10,No fit
same,Log(EC50),"[2]; logarithm of EC50, mean ± SD",No fit
same,Emax (%),[2],No fit
same,fold less potency at α2β2γ3 than seen on α1β2γ3,α2β2γ3 receptor [3],10 fold
same,EC50,α2β2γ3 receptor [4],~500 nM
same,Modulation at 10 μM,[5],305 ± 59%
same,fold greater potency at γ3 receptors compared with γ2,[6],~4 fold
same,fold greater potency at γ3 receptors compared with γ2,[6]; listed as zaleplon,four-fold increase in potency
same,Modulation at 10 μM,[6]; γ3 (α1β2γ3),262 ± 53%
same,Emax,[7],277 ± 26%
same,EC50,"[7]; EC50, γ3 (α1β2γ3), co-applied with GABA EC10",56 nM
same,"Modulation at 10 μM, (I-Ic)/Ic",[8],25%
"Cc1ccc(-c2nc3ccc(C)cn3c2CC(=O)N(C)C)cc1 [Zolpidem, zolpidem]",binding to the classical γ3 receptor benzodiazepine site,"γ3 GABAA receptors; competition with flunitrazepam or Ro-154513, ref Herb et al., 1992, Lüddens et al., 1994, Tögel et al., Hadingham et al., 1995, Sieghart, Dämgen and Lüddens",no binding
same,Emax,[1],475 to 550%
same,maximum efficacy,α2βγ1 receptors,≤ 20%
same,maximum efficacy,α2βγ1 receptors; listed as zolpidem,below 20%
same,binding,γ1-containing receptors,no binding
same,maximum efficacy,α1βγ1 receptors [9],≤ 20%
same,maximum efficacy,α1βγ1 receptors [9]; listed as zolpidem,below 20%
same,Modulation at 10 μM,[2],15 ± 6%
same,Modulation at 10 μM,[2]; listed as zolpidem,15%
same,Emax (%),[2],No fit
same,Modulation at 10 μM,[5],484 ± 124%
same,Emax (%),"[5]; percent of current through GABA EC10, Hill fit",487 ± 66%
same,Modulation at 10 μM,[6]; γ3 (α1β2γ3),101 ± 37%
same,Emax (%),"[6]; γ3 (α1β2γ3), percent of current through GABA EC10, Hill fit",No fit
same,EC50,"α1βγ1 receptors [10]; ref Esmaeili et al., 2009",~200 nM
same,potentiation,"α1βγ1 receptors [10]; ref Puia et al., 1991",50–75%

# Source: paper PMC7710685 (Frontiers in Neuroscience, 2020)
